Laboratory results taken from US6083956A, “Optically pure androgen mediator” (Pfizer Inc., priority 1999, dated 2000).
Where two headings read alike, the source gives them in different places.

Target: T1, recombinant human androgen receptor (hAR) (Homo sapiens, UniProt P10275)
T1 construct: made in house; host or cells: Sf9 insect cells (baculovirus)
Test: Human Androgen Receptor Binding Analysis (competitive binding vs 3H-dihydrotestosterone)
Conditions: 1 nM 3H-DHT tracer, hydroxylapatite, one hour at 4° C

[1] = hAR Binding IC50, baculovirus/Sf9 generated hAR extract

T1 sequence (P10275 whole entry): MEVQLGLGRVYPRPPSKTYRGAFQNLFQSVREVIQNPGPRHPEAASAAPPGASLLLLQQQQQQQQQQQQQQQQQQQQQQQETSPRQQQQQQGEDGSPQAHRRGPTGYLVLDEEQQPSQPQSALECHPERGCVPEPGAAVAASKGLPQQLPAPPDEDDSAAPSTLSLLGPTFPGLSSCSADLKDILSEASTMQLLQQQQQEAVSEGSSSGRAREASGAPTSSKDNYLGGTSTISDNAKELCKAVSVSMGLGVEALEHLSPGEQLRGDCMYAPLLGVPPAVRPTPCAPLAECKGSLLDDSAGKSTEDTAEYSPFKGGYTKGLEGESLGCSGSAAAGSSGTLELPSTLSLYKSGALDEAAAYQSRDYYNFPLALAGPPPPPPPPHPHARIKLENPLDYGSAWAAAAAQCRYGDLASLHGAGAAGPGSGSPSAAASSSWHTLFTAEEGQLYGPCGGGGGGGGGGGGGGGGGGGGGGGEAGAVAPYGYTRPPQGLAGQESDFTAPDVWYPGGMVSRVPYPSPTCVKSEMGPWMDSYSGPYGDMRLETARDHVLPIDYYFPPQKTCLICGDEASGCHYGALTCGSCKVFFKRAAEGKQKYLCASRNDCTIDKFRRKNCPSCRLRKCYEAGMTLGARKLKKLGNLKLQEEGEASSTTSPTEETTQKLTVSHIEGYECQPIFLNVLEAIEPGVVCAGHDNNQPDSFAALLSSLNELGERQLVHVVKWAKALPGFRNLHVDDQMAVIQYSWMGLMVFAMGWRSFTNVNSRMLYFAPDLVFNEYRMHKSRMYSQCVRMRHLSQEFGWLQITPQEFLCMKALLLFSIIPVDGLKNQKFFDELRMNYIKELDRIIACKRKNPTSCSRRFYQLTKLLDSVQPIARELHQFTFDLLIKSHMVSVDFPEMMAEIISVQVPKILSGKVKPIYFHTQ
Protocol: The following is a brief description of the assay that determines the affinity of a compound for the recombinant human androgen receptor (hAR). Competitive binding analysis is performed on baculovirus/Sf9 generated hAR extracts in the presence or absence of differing concentrations of drug and a fixed concentration of ^3 H-dihydrotestosterone (^3 H-DHT) as tracer. […] Briefly, progressively decreasing concentrations of compounds are incubated in the presence of hAR extract (Chang et al. P.N.A.S. Vol. 89, pp. 5546-5950, 1992), hydroxylapatite and 1 nM ^3 H-DHT for one hour at 4° C. Subsequently, the binding reactions are washed three times to completely remove excess unbound ^3 H-DHT. hAR bound.
^3 H-DHT levels are determined in the presence of compounds (=competitive binding) and compared to levels bound when no competitor is present (=maximum binding). Compound binding affinity to the hAR is expressed as the concentration of compound at which one half of the maximum binding is inhibited.

| Compound | IC50 (baculovirus/Sf9 generated hAR extract, read-out: hAR Binding IC50) [nM] | IC50 [1] [nM] |
| --- | --- | --- |
| CCC1CCNc2cc3oc(=O)cc(C(F)(F)F)c3cc21 (racemic) [Racemate (±), Racemic 5-ethyl-4-trifluoromethyl-5,6,7,8-tetrahydro-1-oxa-8-aza-anthracen-2-one, reference compound] | 35 |  |
| CCC1CCNc2cc3oc(=O)cc(C(F)(F)F)c3cc21 (single isomer, unassigned; (+)) [(+) Enantiomer, (+)-5-Ethyl-4-trifluoromethyl-5,6,7,8-tetrahydro-1-oxa-8-aza-anthracen-2-one] |  | 112 |
| CCC1CCNc2cc3oc(=O)cc(C(F)(F)F)c3cc21 (single isomer, unassigned; (-)) [(-) Enantiomer, (-)-5-ethyl-4-trifluoromethyl-5,6,7,8-tetrahydro-1-oxa-8-aza-anthracen-2-one] |  | 5 |
